Measured values reported in patent US20150086557A1, “NOVEL INTEGRIN alpha9 beta1 LIGAND AND USES THEREOF” (OSAKA UNIVERSITY, priority 2012, published 2015).

What was measured:
cardiac stem cells [1] = experiment: Colony forming ability of GFP label-retaining cells (cardiac stem cells); type: cell-based, mouse; settings: 100 nM coating, 1×10^4 cells/well, 2 weeks, FIG. 26
From the text: (§1) Tissue stem cells are known to generally have a very prolonged, cell cycle and thus allow labeling compounds incorporated into DNA and the cell interior to remain stable for a long period of time without decay along with cell division, This nature can be advantageously used to identify and separate tissue stem cells by short-term labeling or cells with a nucleotide analog such as bromodeoxyuridine (BrdU) or a fusion protein of green fluorescent protein (hereinafter referred to as “GFP”) and a nucleoprotein, histone, followed by selection of cells retaining the label for a long period of time (label-retaining cells). In this experiment, with the use of a tetracycline-inducible expression system in combination with the ROSA26 promoter, a fusion protein of GFP and histone H2B (H2B-GFP) was expressed in the heart of a mouse for 2 weeks starting 1 week before birth, and 6 weeks later, cardiac stem cells were separated as GFP label-retaining cells from the heart.
To explore whether cardiac stem cells proliferate on a polydom-coated plate, colony formation was measured, as an indicator of proliferation. A Falcon 6-well plate was coated with 800 μl/well of 100 nM polydom or fibronectin at 4° C. overnight. GFP label-retaining cells were collected by FACSAria and suspended in IMDM containing 10% fetal calf serum. […] After drying, the number of colonies was counted under a microscope.

cardiac stem cells [2] = experiment: Cell adhesion assay using GFP label-retaining cells (cardiac stem cells); type: cell-based, mouse; settings: 100 nM coating, FIG. 25
From the text: as §1
To explore whether polydom serves as a scaffold for integrin α9β1-expressing cardiac stem cells, cardiac stem cells were separated as GFP label-retaining cells and subjected to a cell adhesion assay. A 96-well immuno plate (Nunc Maxisorp) was coated with 50 μl/well of 100 nM polydom or fibronectin at 4° C. overnight, GFP label-retaining cells were collected by FACSAria and suspended at 1×10^6 cells/ml in serum-free Iscove's Modified Dulbecco Medium (hereinafter referred to as “IMDM”). The cell suspension was plated at 100 μl/well and cultured in a 5% CO2 incubator at 37° C. for 12 hours. After three washes with PBS, the cells were fixed with 100 μl/well of 3.7% formalin for 15 minutes. Then, the cells were incubated with 0.5% toluidine blue (150 μl/well) for 10 minutes and washed with MilliQ water. After drying, the number of attached cells was counted under a microscope.

RD cells = experiment: Cell adhesion assay on coated plates (RD cells); type: cell-based, human
Description: A cell adhesion assay was performed as described in Sato, Y. , Uemura, T., Morimitsu, K., Sato-Nishiuchi, R., Manabe, R., Takagi, J., Yamada, M., and Sekiguchi, K. (2009) J. Biol. Chem. 284, 14524-14536. For an assay involving blocking antibodies, RD cells (human rhabdomyosarcoma cells) were preincubated with monoclonal antibodies of interest at room temperature for 15 minutes and plated on 96-well plates coated with recombinant polydom proteins or fibronectin. The cells were incubated for 30 minutes, washed, fixed with 3.7% formaldehyde, and stained with 0.5% toluidine blue.
The cells were plated on 96-well plates coated with serial diluted concentrations of full-length polydom, pol-N, pol-C or plasma fibronectin (FN) and incubated at 37° C. for 30 minutes. After washing out unattached cells, attached cells were fixed and stained with toluidine blue. The attached cells were counted under a microscope. The assay was performed in triplicate.

hematopoietic stem cells [3] = experiment: FACS analysis of differentiation of hematopoietic stem cells on coated wells; type: cell-based, mouse; settings: day 3 of culture on coated well, FIG. 19
Description: (§2) Bone marrow cells were flushed out from the femurs and tibias of three mice of 6 to 7 weeks of age (C57BL/6J) and dissociated with a 22G needle. The cells were reacted with a biotin-labeled anti-lineage antibody for 30 minutes and subsequently with an anti-blotin antibody-conjugated magnetic beads, and lineage-positive cells were removed by automated magnetic cell sorter autoMACS (Miltenyi Biotec). After staining with PE-CD3, PE-Mac1, PE-Gr1, PE-Ter119, PE-B220, FTTC-Sca1 and APC-c-Kit, a lineage(−) Sca1(+) c-Kit (high) cell fraction was sorted out using FACSAria and used for the experiments described below.
(§3) The above-prepared cells were plated on a 48-well plate coated with a recombinant polydom protein or fibronectin. The same type of plate without coating was used as a control. The medium used was RPMI containing 10% fetal calf serum, thrombopoietin (30 ng/ml) and flt3 ligand (100 ng/ml). For the examination of cell proliferation, the cells were plated in duplicate wells for each coating at 1000 cells/well and started to be cultured, and the cell number was counted at the start of culture, and on day 2 and day 3. The remaining cells were divided into three aliquots, plated in wells for each coating, and subjected to FACS analysis on day 3 after the start of culture. For the FACS analysis, staining with an antibody cocktail containing PE-CD3, PE-Mac1, PE-Gr1, PE-Ter119, PE-B220, FITC-Sca1 and APC-c-Kit was performed and FACSCont was used.

hematopoietic stem cells [4] = experiment: Proliferation of hematopoietic stem cells on coated plates; type: cell-based, mouse
Description: as §2, §3
The above-prepared cells were divided into three groups and plated on 48-well plates at 5000 cells/well. The medium used was RPMI containing 10% fetal calf serum, thrombopoietin (30 ng/ml) and flt3 ligand (100 ng/ml). For an EDDMMEVPY peptide treatment group, 2 μl of the peptide was added to each well at the final concentration of 50 μM, and for the other two groups, 2 μl of PBS was added to each well. Then, the culture was performed at […] for 2 hours. Subsequently, the cells were transferred to 48-well plates coated with a recombinant polydom protein or fibronectin. The cells cultured in the presence of the peptide were transferred to the recombinant polydom protein-coated plate, and the cells in one of the other two groups were transferred to the recombinant polydom protein-coated plate, and the cells in the remaining group were transferred to the fibronectin-coated plate. The culture was continued for 3 days and the cell numbers were counted on day 2, day 3 and […].

In the case of “polydom: recombinant mouse SVEP1 (SEQ ID NO: 2), ECM protein, ligand for integrin α9β1”, the “colony forming activity (colony count relative to the number of cells plated)” value (cardiac stem cells [1]) is reported as “about 0.8%”, the “adhesion of cardiac stem cells to coated plate” value (cardiac stem cells [2]; 12 hours, serum-free IMDM) is reported as “a large number of the cells adhered” and the “cell adhesion activity for cardiac stem cells compared with fibronectin” value (cardiac stem cells [2]) is reported as “equivalent or superior to fibronectin”. For the same substance, the “coating concentration attaining the maximum adhesion of RD cells” value (RD cells; 96-well plates, 37° C. for 30 minutes, FIG. 4) was 3 µg/mL, the “promotion of RD cell adhesion” value (RD cells; coated 96-well plates, 37° C. for 30 minutes, FIG. 4) was “coating concentration-dependent manner” and the “morphology of attached RD cells” value (RD cells; microscopic observation, FIG. 5) was “exhibited spread morphology”. For the same substance, the “expression of Sca1 on hematopoietic stem cells” value (hematopoietic stem cells [3]) was “maintained the expression of Sca1”, the “expression of c-Kit on hematopoietic stem cells” value (hematopoietic stem cells [3]) was “reduced expression of c-Kit” and the “proliferation of hematopoietic stem cells on coated wells” value (hematopoietic stem cells [4]; 1000 cells/well, counted to day 3, versus uncoated control, FIG. 18) was “remarkably inhibited from proliferating”. The “proliferation of hematopoietic stem cells on coated plate after PBS pretreatment” value (hematopoietic stem cells [4]; 5000 cells/well, counted day 2 to day 4, FIG. 20) was “remarkably inhibited from proliferating”.
